Structures can show the parent of a compound that is named as a salt.
Key:
recombinant human CHIT1 = recombinant human CHIT1 (Homo sapiens (Human), UniProt Q13231); assay: Human CHIT1 activity assay; type: biochemical; settings: recombinant human CHIT1, citrate buffer pH 5.2, 37° C., 60 minutes; read-out: hCHIT1, IC50
Procedure: (§1) The assay was run in the 96-well plate format, each reaction in the total volume of 100 μL. 4-methylumbelliferyl β-D-N,N′,N″-triacetylchitotriose was used as a substrate for the enzyme. Upon hydrolysis by CHIT1, the substrate releases 4-methylumbelliferyl (4MU) that, when ionized in basic pH, emits fluorescence at 460 nm. Briefly, 40 μL of a substrate was added to each well, followed by 10 μL of compound dilution and 50 μL of CHIT1 recombinant enzyme solution. The reaction was carried out in citrate buffer, pH 5.2, in the dark, at 37° C. for 60 minutes with shaking. […] The IC50 values were calculated using GraphPad Prism.

recombinant human AMCase = recombinant human AMCase (Homo sapiens (Human), UniProt Q9BZP6); assay: Human AMCase activity assay; type: biochemical; settings: citrate buffer pH 5.2, 37° C., 60 minutes, read-out: hAMCase, IC50
Sequence of recombinant human AMCase (Q9BZP6 22-476): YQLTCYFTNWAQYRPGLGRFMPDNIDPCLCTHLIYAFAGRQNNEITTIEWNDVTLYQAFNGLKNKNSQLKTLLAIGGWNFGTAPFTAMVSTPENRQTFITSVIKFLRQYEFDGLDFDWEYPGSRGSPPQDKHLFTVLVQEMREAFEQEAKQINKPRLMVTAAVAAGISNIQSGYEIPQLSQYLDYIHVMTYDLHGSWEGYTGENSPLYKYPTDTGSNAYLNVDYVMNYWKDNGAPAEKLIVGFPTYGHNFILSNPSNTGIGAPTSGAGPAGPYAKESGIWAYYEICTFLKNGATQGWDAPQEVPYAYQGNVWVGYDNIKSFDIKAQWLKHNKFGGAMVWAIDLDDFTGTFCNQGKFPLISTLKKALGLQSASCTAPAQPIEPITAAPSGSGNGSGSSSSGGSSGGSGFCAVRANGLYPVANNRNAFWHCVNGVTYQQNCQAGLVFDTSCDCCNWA
Procedure: as §1, with “4-Methylumbelliferyl B-D-N,N′-diacetylchitobioside hydrate” for “4-methylumbelliferyl β-D-N,N′,N″-triacetylchitotriose”, “AMCase,” for “CHIT1,”, “hAMCase” for “CHIT1”

hERG channel = hERG channel (Homo sapiens (Human), UniProt Q12809); assay: Human ERG channel binding assay (fluorescence polarization); settings: tracer displacement, 4 h at room temperature
Sequence of hERG channel (Q12809 whole entry): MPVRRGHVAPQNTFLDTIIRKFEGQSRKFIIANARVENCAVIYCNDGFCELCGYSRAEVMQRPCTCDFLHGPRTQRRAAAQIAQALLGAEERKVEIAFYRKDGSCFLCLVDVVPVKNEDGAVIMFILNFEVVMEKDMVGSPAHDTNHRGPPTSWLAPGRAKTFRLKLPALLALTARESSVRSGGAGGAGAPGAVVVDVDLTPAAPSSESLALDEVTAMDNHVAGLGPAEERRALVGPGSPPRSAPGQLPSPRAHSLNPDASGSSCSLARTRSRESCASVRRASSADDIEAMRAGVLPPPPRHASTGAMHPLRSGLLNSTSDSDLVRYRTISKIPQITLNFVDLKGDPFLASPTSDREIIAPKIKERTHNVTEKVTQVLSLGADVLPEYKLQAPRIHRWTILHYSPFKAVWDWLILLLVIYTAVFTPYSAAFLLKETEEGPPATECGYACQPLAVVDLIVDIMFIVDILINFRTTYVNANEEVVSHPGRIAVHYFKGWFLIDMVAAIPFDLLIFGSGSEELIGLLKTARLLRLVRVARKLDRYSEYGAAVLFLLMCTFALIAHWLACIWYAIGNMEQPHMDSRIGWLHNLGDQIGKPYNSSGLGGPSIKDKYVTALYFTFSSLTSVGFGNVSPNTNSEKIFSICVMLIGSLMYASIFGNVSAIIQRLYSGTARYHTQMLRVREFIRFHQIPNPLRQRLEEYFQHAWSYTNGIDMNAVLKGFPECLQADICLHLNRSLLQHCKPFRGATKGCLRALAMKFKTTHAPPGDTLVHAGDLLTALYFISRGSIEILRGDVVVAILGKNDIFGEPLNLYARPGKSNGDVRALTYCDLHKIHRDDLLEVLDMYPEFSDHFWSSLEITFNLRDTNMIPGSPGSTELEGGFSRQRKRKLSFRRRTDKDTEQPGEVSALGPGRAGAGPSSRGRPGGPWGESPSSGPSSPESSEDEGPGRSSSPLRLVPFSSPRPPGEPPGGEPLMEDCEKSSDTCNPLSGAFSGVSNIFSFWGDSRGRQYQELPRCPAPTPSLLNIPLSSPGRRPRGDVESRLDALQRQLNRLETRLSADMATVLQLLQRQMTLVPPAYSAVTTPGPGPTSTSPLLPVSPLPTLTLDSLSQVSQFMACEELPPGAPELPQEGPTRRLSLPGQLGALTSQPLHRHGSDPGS
Procedure: Human ERG Channel Binding Assay
Fluorescence polarization assay based on the principle of fluorescence polarization where a red-shifted fluorescent tracer is displaced from the hERG channel by compounds that bind to the channel was used to establish the binding of the compounds to hERG channel. […] Briefly, the compounds in serial dilutions were incubated with a membrane fraction containing hERG channel protein and a high-affinity red fluorescent hERG channel ligand in black 384-well plate. […] The IC50 values were calculated using GraphPad Prism.

Sequence of recombinant human CHIT1 (Q13231 22-466): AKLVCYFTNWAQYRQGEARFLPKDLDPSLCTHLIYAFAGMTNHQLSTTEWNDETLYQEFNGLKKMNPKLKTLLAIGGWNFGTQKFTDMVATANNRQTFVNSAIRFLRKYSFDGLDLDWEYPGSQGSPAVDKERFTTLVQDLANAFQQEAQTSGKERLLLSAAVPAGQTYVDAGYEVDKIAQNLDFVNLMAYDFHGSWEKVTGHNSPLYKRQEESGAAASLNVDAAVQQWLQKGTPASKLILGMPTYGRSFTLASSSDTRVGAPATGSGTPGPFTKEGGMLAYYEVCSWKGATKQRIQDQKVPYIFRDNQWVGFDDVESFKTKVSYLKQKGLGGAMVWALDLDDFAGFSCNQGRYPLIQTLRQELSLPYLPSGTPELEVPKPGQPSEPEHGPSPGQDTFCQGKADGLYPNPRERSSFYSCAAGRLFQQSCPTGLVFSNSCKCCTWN

| Structure (SMILES) | IC50 (recombinant human CHIT1) [nM] | IC50 (recombinant human AMCase) [nM] | IC50 (hERG channel; Table 1) [nM] | IC50 (hERG channel; Table 2, comparative examples) [nM] |
| --- | --- | --- | --- | --- |
| CC(C)(F)[C@H]1CN(C2CCN(c3nnc(N)[nH]3)CC2)[C@@H](Cc2ccc(Cl)cc2)CO1 [Example 1, 5-(4-((2R,5S)-5-(4-chlorobenzyl)-2-(2-fluoropropan-2-yl)morpholino)piperidin-1-yl)-4H-1,2,4-triazol-3-amine 2,2,2-trifluoroacetate] | < 100 | < 100 | 25000 to 100000 |  |
| Nc1nnc(N2CCC(N3C[C@H](Cn4cncn4)OC[C@@H]3Cc3ccc(Cl)cc3)CC2)[nH]1 [Example 27, 5-(4-((2R,5S)-2-((1H-1,2,4-triazol-1-yl)methyl)-5-(4-chlorobenzyl)morpholino)piperidin-1-yl)-4H-1,2,4-triazol-3-amine 2,2,2-trifluoroacetate] | < 100 | < 100 | > 100000 |  |
| Cc1cc([C@H]2CN(C3CCN(c4nnc(N)[nH]4)CC3)[C@@H](Cc3ccc(Cl)cc3)CO2)nn1C [Example 11, 5-(4-((2R,5S)-5-(4-chlorobenzyl)-2-(1,5-dimethyl-1H-pyrazol-3-yl)morpholino)-piperidin-1-yl)-4H-1,2,4-triazol-3-amine 2,2,2-trifluoroacetate] | < 100 | < 100 | > 100000 |  |
| Nc1nnc(N2CCC(N3CCOC[C@@H]3Cc3ccc(Cl)cc3)CC2)[nH]1 [Example C1, reference compound] |  |  |  | 10000 to 25000 |
| Nc1nnc(N2CCC(N3C[C@H](O)CC[C@@H]3Cc3ccc(Cl)cc3)CC2)[nH]1 [Example 70, (3R,6R)-1′-(5-amino-4H-1,2,4-triazol-3-yl)-6-(4-chlorobenzyl)-[1,4′-bipiperidin]-3-ol 2,2,2-trifluoroacetate] | < 100 | < 100 |  |  |
| Nc1nnc(N2CCC(N3Cc4cc(Cl)ccc4OC[C@@H]3Cc3ccc(Cl)cc3)CC2)[nH]1 [Example C20, reference compound] |  |  |  | 1000 to 10000 |
| CN1C[C@H](Cc2ccc(Cl)cc2)N(C2CCN(c3nnc(N)[nH]3)CC2)Cc2ccccc21 [Example C17, reference compound] |  |  |  | 1000 to 10000 |
| CC(C)CN1CCN(C2CCN(c3nnc(N)[nH]3)CC2)[C@@H](Cc2ccc(Cl)cc2)C1 [Example C9, reference compound] |  |  |  | 1000 to 10000 |
| Nc1nnc(N2CCC(N3C[C@@H](O)C[C@@H]3Cc3ccc(Cl)cc3)CC2)[nH]1 [Example C14, reference compound] |  |  |  | 10000 to 25000 |
| Nc1nnc(N2CCC(N3C[C@@H]4CCCN4C[C@@H]3Cc3ccc(Cl)cc3)CC2)[nH]1 [Example C15, reference compound] |  |  |  | 1000 to 10000 |
| C[C@H]1CN(C2CCN(c3nnc(N)[nH]3)CC2)[C@@H](Cc2ccc(Cl)cc2)CN1C [Example C8, reference compound] |  |  |  | 1000 to 10000 |
| Nc1nnc(N2CCC(N3CCC[C@@H]3Cc3ccc(Cl)cc3)CC2)[nH]1 [Example C7, reference compound] |  |  |  | 1000 to 10000 |
| COC(C)(C)[C@H]1CN(C2CCN(c3nnc(N)[nH]3)CC2)[C@@H](Cc2ccc(Cl)cc2)CO1 [Example C3, reference compound] |  |  |  | 10000 to 25000 |
| Nc1nnc(N2CCC(N3CCCC[C@@H]3Cc3ccc(Cl)cc3)CC2)[nH]1 [Example C4, reference compound] |  |  |  | 1000 to 10000 |
| CC1(O)CCN(C2CCN(c3nnc(N)[nH]3)CC2)[C@@H](Cc2ccc(Cl)cc2)C1 (stereo partly drawn) [Example 59, (2S)-1′-(5-amino-4H-1,2,4-triazol-3-yl)-2-(4-chlorobenzyl)-4-methyl-[1,4′-bipiperidin]-4-ol 2,2,2-trifluoroacetate] | 1000 to 10000 |  | 25000 to 100000 |  |
| CN1C[C@H](Cc2ccc(Cl)cc2)N(C2CCN(c3nnc(N)[nH]3)CC2)C[C@@H]1CC1CCCCC1 [Example C11, reference compound] |  |  |  | < 1000 |
| C[C@@H]([C@H]1CN(C2CCN(c3nnc(N)[nH]3)CC2)[C@@H](Cc2ccc(Cl)cc2)CO1)n1cccn1 [Example 18, 5-(4-((2R,5S)-2-((S)-1-(1H-pyrazol-1-yl)ethyl)-5-(4-chlorobenzyl)morpholino)-piperidin-1-yl)-4H-1,2,4-triazol-3-amine 2,2,2-trifluoroacetate] | < 100 | < 100 |  |  |

| Structure (SMILES) | IC50 (recombinant human CHIT1) [nM] | IC50 (recombinant human AMCase) [nM] | IC50 (hERG channel; Table 1) [nM] | IC50 (hERG channel; Table 2, comparative examples) [nM] |
| --- | --- | --- | --- | --- |
| CO[C@@H]1CC[C@H](Cc2ccc(Cl)cc2)N(C2CCN(c3nnc(N)[nH]3)CC2)C1 [Example 71, 5-((2R,5R)-2-(4-chlorobenzyl)-5-methoxy-[1,4′-bipiperidin]-1′-yl)-4H-1,2,4-triazol-3-amine 2,2,2-trifluoroacetate] | 100 to 1000 |  | 25000 to 100000 |  |
| Nc1nnc(N2CCC(N3Cc4cc(Cl)cc(Cl)c4OC[C@@H]3Cc3ccc(Cl)cc3)CC2)[nH]1 [Example C21, reference compound] |  |  |  | 1000 to 10000 |
| Nc1nnc(N2CCC(N3C[C@H](COCC(F)F)OC[C@@H]3Cc3ccc(Cl)cc3)CC2)[nH]1 [Example 43, 5-(4-((2R,5S)-5-(4-chlorobenzyl)-2-((2,2-difluoroethoxy)methyl)morpholino)-piperidin-1-yl)-4H-1,2,4-triazol-3-amine 2,2,2-trifluoroacetate] | < 100 | < 100 |  |  |
| Nc1nnc(N2CCC(N3CC(F)(F)C[C@@H]3Cc3ccc(Cl)cc3)CC2)[nH]1 [Example 56, (S)-5-(4-(2-(4-chlorobenzyl)-4,4-difluoropyrrolidin-1-yl)piperidin-1-yl)-4H-1,2,4-triazol-3-amine dihydrochloride] | < 100 |  |  |  |
| Nc1nnc(N2CCC(N3C[C@H](COC(F)F)OC[C@@H]3Cc3ccc(Cl)cc3)CC2)[nH]1 [Example 40, 5-(4-((2R,5S)-5-(4-chlorobenzyl)-2-((difluoromethoxy)methyl)morpholino)-piperidin-1-yl)-4H-1,2,4-triazol-3-amine 2,2,2-trifluoroacetate] | < 100 | < 100 |  |  |
| CO[C@H]1CN(C2CCN(c3nnc(N)[nH]3)CC2)[C@H]1Cc1ccc(Cl)cc1 [Example C6, reference compound] |  |  |  | < 1000 |
| Nc1nnc(N2CCC(N3C[C@H](CN4CCC(F)(F)CC4)OC[C@@H]3Cc3ccc(Cl)cc3)CC2)[nH]1 [Example 38, 5-(4-((2S,5S)-5-(4-chlorobenzyl)-2-((4,4-difluoropiperidin-1-yl)methyl)-morpholino)piperidin-1-yl)-4H-1,2,4-triazol-3-amine 2,2,2-trifluoroacetate] | < 100 | < 100 |  |  |
| CC(C)C[C@H]1CN(C2CCN(c3nnc(N)[nH]3)CC2)[C@@H](Cc2ccc(Cl)cc2)CN1C [Example C12, reference compound] |  |  |  | < 1000 |
| C[C@H]([C@H]1CN(C2CCN(c3nnc(N)[nH]3)CC2)[C@@H](Cc2ccc(Cl)cc2)CO1)n1cccn1 [Example 19, 5-(4-((2R,5S)-2-((R)-1-(1H-pyrazol-1-yl)ethyl)-5-(4-chlorobenzyl)morpholino)-piperidin-1-yl)-4H-1,2,4-triazol-3-amine 2,2,2-trifluoroacetate] | < 100 | < 100 |  |  |
| Nc1nnc(N2CCC(N3Cc4cncn4C[C@@H]3Cc3ccc(C(F)(F)F)cc3)CC2)[nH]1 [Example 77, (S)-5-(4-(6-(4-(trifluoromethyl)benzyl)-5,6-dihydroimidazo[1,5-a]pyrazin-7(8H)-yl)piperidin-1-yl)-4H-1,2,4-triazol-3-amine 2,2,2-trifluoroacetate] | 1000 to 10000 |  |  |  |
| Nc1nnc(N2CCC(N3CC4CC4C[C@@H]3Cc3ccc(Cl)cc3)CC2)[nH]1 (stereo partly drawn) [Example 72, 5-(4-((4R)-4-(4-chlorobenzyl)-3-azabicyclo[4.1.0]heptan-3-yl)piperidin-1-yl)-4H-1,2,4-triazol-3-amine 2,2,2-trifluoroacetate] | 100 to 1000 | < 100 |  |  |
| Nc1nnc(N2CCC(N3C[C@H](CN4CCCCC4=O)OC[C@@H]3Cc3ccc(Cl)cc3)CC2)[nH]1 [Example 35, 1-(((2R,5S)-4-(1-(5-amino-4H-1,2,4-triazol-3-yl)piperidin-4-yl)-5-(4-chlorobenzyl)-morpholin-2-yl)methyl)piperidin-2-one 2,2,2-trifluoroacetate] | < 100 | < 100 |  |  |
| CN1C[C@H](Cc2ccc(Cl)cc2)N(C2CCN(c3nnc(N)[nH]3)CC2)C[C@@H]1Cc1ccc(Cl)cc1 [Example C10, reference compound] |  |  |  | < 1000 |
| CC(C)C[C@H]1CN(C2CCN(c3nnc(N)[nH]3)CC2)[C@@H](Cc2ccc(Cl)cc2)CO1 [Example C2, reference compound] |  |  |  | 1000 to 10000 |
| CC(F)(F)[C@H]1CN(C2CCN(c3nnc(N)[nH]3)CC2)[C@@H](Cc2ccc(Cl)cc2)CO1 [Example 42, 5-(4-((2R,5S)-5-(4-chlorobenzyl)-2-(1,1-difluoroethyl)morpholino)piperidin-1-yl)-4H-1,2,4-triazol-3-amine dihydrochloride] | < 100 | < 100 |  |  |
| CN1C[C@H](Cc2ccc(Cl)cc2)N(C2CCN(c3nnc(N)[nH]3)CC2)Cc2cc(Cl)ccc21 [Example C18, reference compound] |  |  |  | < 1000 |

Reference: patent US11638707B2, “Substituted amino triazoles useful as chitinase inhibitors” (Molecure S.A., priority 2019, dated 2023)
